According to PubChem BioAssay AID2060358 (Molecular Pharmacology Branch, DTP, NCI, 2025):

Test system: 254851-301-R-J1-PDC spheroids, viability % test/control
Assay: Anticancer human tumor 254851-301-R-J1-PDC patient-derived colon carcinoma cell line growth inhibition [TAK]
Details: spheroids with HUVEC and MSC; for IC50: curve of first compound; for viability, T/C: stronger effect = lower value
Text: Combinatorial screen of targeted agents with TAK-243 and ipatasertib in multi-cell type tumor spheroids
A high-throughput screen of multi-cell type tumor spheroids was designed to identify active combinations of targeted small molecules and TAK-243 or ipatasertib. Complex spheroids include a stromal component modeled by human endothelial cells (HUVEC) and fibroblasts modeled by human mesenchymal stem cells (MSCs). The concentration ranges selected for each drug and investigational agent were based upon clinically achievable concentrations if the clinical Cmax of the agent was known.
Compounds. The drugs and investigational agents: TAK-243 (785004), ipatasertib (767898), everolimus (733504), selumetinib (741078), bortezomib (756655), trametinib (758246), ixazomib (758254), vemurafenib (761431), dabrafenib (764134), sapanisertib (764658), alpelisib (765974), and copanlisib (816437), were obtained from the National Cancer Institute (NCI) Developmental Therapeutics Program Chemical Repository. The FDA-approved anticancer drug set is available from the NCI Developmental Therapeutics Program. […] The stock solutions were prepared in dimethyl sulfoxide (DMSO, Sigma-Aldrich, St. Louis, MO, cat. D2650) at 800-fold the tested concentration and stored at -70 degrees C prior to their use. All drugs and investigational agents were tested over a range starting from a high concentration at or near the clinical Cmax and decreasing in half-log increments. If the clinical Cmax for an agent had not been determined, the highest concentration tested was 10 microM.
NCI60 Cell Culture. NCI60 cell lines were obtained from the NCI Developmental Therapeutics Program Tumor Repository. For each lot of cells, the Repository performed Applied Biosystems AmpFLSTR Identifiler testing with PCR amplification to confirm consistency with the published Identifier STR profile for each cell line. Cells were kept in continuous culture for no more than 20 passages. The optimal seeding densities for each of the cell lines at each time point assessed were determined prior to performing the concentration response studies. Briefly, the NCI60 human tumor lines were grown as monolayers in RPMI 1640 medium supplemented with 10% FBS and 2 mmol/L L-glutamine.
An additional 2 lines were from the NCI60 cell line panel including melanomas, MALME-3M and SK-MEL-2. Pooled donor human umbilical vein endothelial cells (HUVEC, Lonza, cat. CC-2519) and human mesenchymal stem cells (hMSC, Lonza, cat. PT-2501) were purchased from Lonza (Walkersville, MD).
PDMR cell lines were grown in complete medium (DC medium): Dulbecco's modified Eagle's medium (DMEM)/F12 supplemented with 5% fetal bovine serum (FBS), 2 mM L-glutamine, 100 U/mL penicillin and 100 µg/ml streptomycin, 0.4 µg/ml hydrocortisone, 10 ng/ml epidermal growth factor (EGF) recombinant human protein, 24 µg/mL adenine, and 0.1 mg/mL primocin. During culture from frozen stock vials, PDMR cells were cultured in the same medium containing 10 µM Y-27632 (see Table 3). The PDCs were cultured in complete DMEM/F12 media without 10 microM Y-27632 dihydrochloride for at least two passages prior to the screen. The pooled donor HUVEC and hMSC were cultured in endothelial cell growth medium 2 (PromoCell, Heidelberg, Germany, cat. C-22011) and mesenchymal stem cell growth medium 2 (PromoCell, cat. C-28009), respectively. For all experiments, HUVEC and hMSC were used at passages </=5.
For the pre-screen, cell seeding densities were determined from a titration spanning the range from 5,000 to 313 cells per well. The mct-spheroids including 60% malignant cells, 25% HUVEC and 15% MSC dispensed as a mixture into U-bottom Ultra-Low Attachment 384-well plates (Corning, NY)
High-throughput Drug Combination Screening.
Prior to their inoculation into 384-well plates, malignant cells, HUVEC, and hMSC were removed from T flasks using TrypLE express (Thermo Fisher Scientific, cat. 12605036) and harvested by centrifugation for 5 min at 233 x g. […]
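Also: spheroids exposed to drugs for seven days before viability readout.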

For CC(C)CC(NC(=O)C(Cc1ccccc1)NC(=O)c1cnccn1)B(O)O (stereo not given) + CC(C)NCC(C(=O)N1CCN(c2ncnc3c2C(C)CC3O)CC1)c1ccc(Cl)cc1, the IC50 (second compound 0.3 µM) was > 10 nM, the IC50 (second compound 0.949 µM) was > 10 nM and the IC50 (second compound 3 µM) was > 10 nM. The IC50 (second compound 9.49 µM) was > 10 nM, the IC50 (second compound 30 µM) was > 10 nM and the viability, T/C (second compound 0.3 µM, first compound 31.6 pM) was 118%. It also gave a viability, T/C (second compound 0.3 µM, first compound 0.0001 µM) of 124%, a viability, T/C (second compound 0.3 µM, first compound 0.000316 µM) of 109% and a viability, T/C (second compound 0.3 µM, first compound 0.001 µM) of 112%. It also gave a viability, T/C (second compound 0.3 µM, first compound 0.00316 µM) of 103%, a viability, T/C (second compound 0.3 µM, first compound 0.01 µM) of 79.9% and a viability, T/C (second compound 0.949 µM, first compound 31.6 pM) of 112%. The viability, T/C (second compound 0.949 µM, first compound 0.0001 µM) was 114%, the viability, T/C (second compound 0.949 µM, first compound 0.000316 µM) was 101% and the viability, T/C (second compound 0.949 µM, first compound 0.001 µM) was 107%. For the same compound, the viability, T/C (second compound 0.949 µM, first compound 0.00316 µM) was 103%, the viability, T/C (second compound 0.949 µM, first compound 0.01 µM) was 87.9% and the viability, T/C (second compound 3 µM, first compound 31.6 pM) was 108%. It also gave a viability, T/C (second compound 3 µM, first compound 0.0001 µM) of 114%, a viability, T/C (second compound 3 µM, first compound 0.000316 µM) of 110% and a viability, T/C (second compound 3 µM, first compound 0.001 µM) of 109%. For the same compound, the viability, T/C (second compound 3 µM, first compound 0.00316 µM) was 111%, the viability, T/C (second compound 3 µM, first compound 0.01 µM) was 86.6% and the viability, T/C (second compound 9.49 µM, first compound 31.6 pM) was 106%. For the same compound, the viability, T/C (second compound 9.49 µM, first compound 0.0001 µM) was 110%, the viability, T/C (second compound 9.49 µM, first compound 0.000316 µM) was 112% and the viability, T/C (second compound 9.49 µM, first compound 0.001 µM) was 104%. It also gave a viability, T/C (second compound 9.49 µM, first compound 0.00316 µM) of 99%, a viability, T/C (second compound 9.49 µM, first compound 0.01 µM) of 81.4% and a viability, T/C (second compound 30 µM, first compound 31.6 pM) of 90.3%. It also gave a viability, T/C (second compound 30 µM, first compound 0.0001 µM) of 98.9%, a viability, T/C (second compound 30 µM, first compound 0.000316 µM) of 94.4% and a viability, T/C (second compound 30 µM, first compound 0.001 µM) of 89%. The viability, T/C (second compound 30 µM, first compound 0.00316 µM) was 85.7% and the viability, T/C (second compound 30 µM, first compound 0.01 µM) was 71%.
Work on Cn1cnc2c(F)c(Nc3ccc(Br)cc3Cl)c(C(=O)NOCCO)cc21 + CC(C)NCC(C(=O)N1CCN(c2ncnc3c2C(C)CC3O)CC1)c1ccc(Cl)cc1 yielded an IC50 (second compound 0.3 µM) of 1600 nM, an IC50 (second compound 0.949 µM) of 1610 nM and an IC50 (second compound 3 µM) of 1630 nM. It also gave an IC50 (second compound 9.49 µM) of 1540 nM, an IC50 (second compound 30 µM) of 1410 nM and a viability, T/C (second compound 0.3 µM, first compound 0.00949 µM) of 110%. For the same compound, the viability, T/C (second compound 0.3 µM, first compound 0.03 µM) was 120%, the viability, T/C (second compound 0.3 µM, first compound 0.0949 µM) was 110% and the viability, T/C (second compound 0.3 µM, first compound 0.3 µM) was 108%. The viability, T/C (second compound 0.3 µM, first compound 0.949 µM) was 77.5%, the viability, T/C (second compound 0.3 µM, first compound 3 µM) was 16.6% and the viability, T/C (second compound 0.949 µM, first compound 0.00949 µM) was 111%. The viability, T/C (second compound 0.949 µM, first compound 0.03 µM) was 108%, the viability, T/C (second compound 0.949 µM, first compound 0.0949 µM) was 118% and the viability, T/C (second compound 0.949 µM, first compound 0.3 µM) was 88.7%. For the same compound, the viability, T/C (second compound 0.949 µM, first compound 0.949 µM) was 78.9%, the viability, T/C (second compound 0.949 µM, first compound 3 µM) was 19.6% and the viability, T/C (second compound 3 µM, first compound 0.00949 µM) was 101%. The viability, T/C (second compound 3 µM, first compound 0.03 µM) was 118%, the viability, T/C (second compound 3 µM, first compound 0.0949 µM) was 115% and the viability, T/C (second compound 3 µM, first compound 0.3 µM) was 105%. The viability, T/C (second compound 3 µM, first compound 0.949 µM) was 79.1%, the viability, T/C (second compound 3 µM, first compound 3 µM) was 17.6% and the viability, T/C (second compound 9.49 µM, first compound 0.00949 µM) was 103%. It also gave a viability, T/C (second compound 9.49 µM, first compound 0.03 µM) of 114%, a viability, T/C (second compound 9.49 µM, first compound 0.0949 µM) of 112% and a viability, T/C (second compound 9.49 µM, first compound 0.3 µM) of 102%. The viability, T/C (second compound 9.49 µM, first compound 0.949 µM) was 75.2%, the viability, T/C (second compound 9.49 µM, first compound 3 µM) was 15.3% and the viability, T/C (second compound 30 µM, first compound 0.00949 µM) was 84.6%. It also gave a viability, T/C (second compound 30 µM, first compound 0.03 µM) of 92.4%, a viability, T/C (second compound 30 µM, first compound 0.0949 µM) of 105% and a viability, T/C (second compound 30 µM, first compound 0.3 µM) of 83.9%. The viability, T/C (second compound 30 µM, first compound 0.949 µM) was 72.4% and the viability, T/C (second compound 30 µM, first compound 3 µM) was 8.88%.
